Test results from publication PMC8912008, “Pharmacokinetic Study of Withanosides and Withanolides from Withania somnifera Using Ultra-High Performance Liquid Chromatography-Tandem Mass Spectrometry (UHPLC-MS/MS)” (Molecules, 2022).
Like-named read-outs stand apart in the source and are kept apart here. Each block holds one compound with its values, some of them ahead of it.

How the values were obtained:
[1] = Stability of analytes in rat plasma; conditions: n = 6; for Processed sample stability (% ± SD): processed rat plasma sample, 4 h; for Bench top Stability (% ± SD): 25 °C for 4 h; for Freeze-thaw stability (% ± SD): three freeze/thaw cycles
Protocol: Six replicates of quality control samples were analyzed at four concentration levels (LLOQ, LQC, MQC, and HQC; n = 6) on the same day (intra-day) and repeated for three consecutive days (inter-day) (Table S2). The precision was expressed as the relative standard deviation (% RSD), and accuracy was reported as the relative error (% RE). Later, these samples were analyzed for stability testing under the following conditions: three complete freeze/thaw cycles (−80 °C to 25 °C), long-term sample storage (−80 °C for 60 days), processed sample, and bench-top (25 °C for 4 h).

in vitro = conditions: rat
Excerpt: (§1) The everted intestinal segment was mounted on the apparatus and setting it in the beaker. The internal surface of the glass tubes serves as the mucosal compartment, and the beaker serves as the serosal compartment. Animals were humanly sacrificed by cervical dislocation followed by a midline incision. The abdominal cavity was opened carefully, and the intestine was maneuvered to identify the ileocecal junction. A 7 cm long intestinal segment distant to the ileocecal junction (5–6 cm) was excised by carefully removing the mesenteric attachments without causing any damage to the intestinal architecture. The segment was cleaned using the Kreb’s Ringer Bicarbonate (KRB) buffer medium and was stored in KRB buffer in a petri dish. The cleaned segment was then everted gently using a glass rod. Finally, a 3 cm long intestinal segment was used to perform the permeability study [49, 50].
(§2) The tissue was mounted on the apparatus and was placed in a 1000 mL beaker containing 2 mg/mL WSE suspension. The intestinal segment was perfused from the mucosal end using the KRB buffer. The apparatus (beaker with tissue) was placed on the magnetic stirrer followed by continuous stirring using a magnetic bead at 25 rpm to mimic the peristaltic movement of the stomach at 37 °C with appropriate aeration. The sample collection at different time points was carried out every 5 min interval for 1 h. The collected samples were further diluted and analyzed using LC-MS/MS.
(§3) The sample was diluted to 20-fold in ACN and injected 2 µL into LC-MS/MS. Samples were stored at −20 °C until analysis using validated UHPLC-MS/MS. The permeability was obtained by plotting the cumulative amount transported (ng) across the gut sac against time (second).
(§4) The calculation of apparent permeability (Papp) was carried out using the following Equation (1):Papp = dQ/dt × 1/A × C0(1) where Papp: apparent permeability co-efficient; dQ/dt: the cumulative amount of drug (Q) appearing in the acceptor (serosal) compartment as a function of time and was obtained from the slope of the linear portion of the amount transported-versus-time plot. A: Surface area of the intestine (cm^2) (0.18 cm as radius) and C0: Initial concentration of drug in the donor compartment (ng/mL).

in vivo = conditions: rat; for AUC(0-inf) / AUC(0-t) / Cmax / MRT inf / Tmax / half-life / k el: male, Sprague Dawley
Excerpt: It is known that the hydrophobic interior surface of the cell membrane (lipid bilayer) serves as a barrier to the passage of polar and high molecular weight molecules.
Food pellets and tap water were provided ad libitum throughout the experimentation. The protocol to carry out in vivo pharmacokinetics was approved by The Institutional Animal Ethics Committee (IAEC) of Crystal Biological Solution, Pune, Maharashtra, India. […] Eighteen animals were subdivided into three groups, (n = 6) animals in each group. Withania somnifera extract suspension was prepared in water for oral administration, and the dose was calculated based on the acute oral toxicity study (500 mg/kg; single dose). […] The separated plasma samples were transferred into Eppendorf tubes and stored at −80 °C in a deep freezer until analysis. Ten pharmacokinetic parameters were determined using PK solver 2.0, USA [45, 46, 47]. The maximum observed concentration (Cmax) and maximum observed time (Tmax) were calculated directly from the experimental results. The elimination rate constant (Kel) was calculated from the slope of the linear regression of Log concentrations as a function of time. […] The area under the curve (AUC(0–t)) was calculated from the linear curve following the trapezoidal rule, while AUC(0–∞) was calculated by adding Ct/λ, with Ct being the final measurable concentration. Oral clearance (Cl/F) was obtained from the equation Cl/F = dose/AUC(0–∞). Mean residence time (MRT) was calculated as AUMC(0–∞)/AUC(0–∞), where AUMC(0–∞) is the area under the first moment curve. […] The pharmacokinetic parameters as the average of six rats ± SD. The mean plasma concentration Vs. time curve (mean ± SD) was prepared using Prism 8.2, (GraphPad, San Diego, CA, USA).

[2] = Balb/C mice, 4 mg/kg single intraperitoneal; cited from earlier work
[3] = Ex vivo permeability study, everted rat intestine apparatus
Excerpt: as §1, §2, §3, §4

[4] = male rats, cited from earlier work
[5] = mice, oral Withania somnifera aqueous extract 1000 mg/kg; cited from earlier work
[6] = high QC (nominal 200.50-201.50 ng/mL)
[7] = low QC (nominal 10.05-10.50 ng/mL)
[8] = rat plasma, high QC (nominal 200.50-201.50 ng/mL)
[9] = rat plasma, low QC (nominal 10.05-10.50 ng/mL)

SMILES: CC1=C(CO)C(=O)O[C@@H]([C@@H](C)[C@H]2CC[C@H]3[C@@H]4CC=C5C[C@@H](O[C@@H]6O[C@H](CO[C@@H]7O[C@H](CO)[C@@H](O)[C@H](O)[C@H]7O)[C@@H](O)[C@H](O)[C@H]6O)C[C@H](O)[C@]5(C)[C@H]4CC[C@]23C)C1 [Withanoside IV]
Processed sample stability (% ± SD) [1, 6]: 101.10 ± 9.54% | Processed sample stability (% ± SD) [1, 7]: 104.41 ± 4.84% | Bench top Stability (% ± SD) [1, 8]: 100.34 ± 10.45% | Bench top Stability (% ± SD) [1, 9]: 104.41 ± 4.84% | Autosampler stability (% ± SD) [1, 8]: 111.61 ± 0.88% | Autosampler stability (% ± SD) [1, 9]: 108.21 ± 2.00% | Freeze-thaw stability (% ± SD) [1, 8]: 98.95 ± 5.47% | Freeze-thaw stability (% ± SD) [1, 9]: 104.78 ± 5.59% | Papp at 1 h, 2 mg/mL (in vitro): 0.142 ×10⁻⁶ cm/s | AUC(0-inf) (in vivo; in vivo, po, 500 mg/kg): 22.9 ± 5.73 ng·h/mL | AUC(0-t) (in vivo; in vivo, po, 500 mg/kg): 14 ± 3.7 ng·h/mL | Cmax (in vivo; in vivo, po, 500 mg/kg): 13.8 ± 3.73 ng/mL | MRT inf (in vivo; in vivo, po, 500 mg/kg): 2.08 ± 0.394 h | Tmax (in vivo; in vivo, po, 500 mg/kg): 0.75 h | half-life (in vivo; in vivo, po, 500 mg/kg): 1.1 ± 0.272 h | k el (in vivo; in vivo, po, 500 mg/kg): 0.000182 s⁻¹ | Cl/F (oral clearance) (in vivo; in vivo, po, 500 mg/kg): 0.176 ± 0.037 | Vdapp (mean apparent volume of distribution) (in vivo; in vivo, po, 500 mg/kg): 0.278 ± 0.083 | oral clearance (Cl/F) (in vivo; in vivo, po, 500 mg/kg): 0.176 ± 0.037 (mg/kg)/(ng/mL)/h

SMILES: CC1=C(C)C(=O)O[C@@H]([C@@H](C)[C@H]2CC[C@H]3[C@@H]4CC=C5C[C@@H](O[C@@H]6O[C@H](CO[C@@H]7O[C@H](CO)[C@@H](O)[C@H](O)[C@H]7O)[C@@H](O)[C@H](O)[C@H]6O)C[C@H](O)[C@]5(C)[C@H]4CC[C@]23C)C1 [Withanoside V]
Processed sample stability (% ± SD) [1, 6]: 90.47 ± 6.50% | Processed sample stability (% ± SD) [1, 7]: 134.85 ± 90.10% | Bench top Stability (% ± SD) [1, 8]: 91.74 ± 8.97% | Bench top Stability (% ± SD) [1, 9]: 99.58 ± 8.68% | Autosampler stability (% ± SD) [1, 8]: 111.25 ± 4.54% | Autosampler stability (% ± SD) [1, 9]: 109.83 ± 8.35% | Freeze-thaw stability (% ± SD) [1, 8]: 99.38 ± 6.58% | Freeze-thaw stability (% ± SD) [1, 9]: 105.13 ± 6.95% | Papp at 1 h, 2 mg/mL (in vitro): 0.0343 ×10⁻⁶ cm/s

Processed sample stability (% ± SD) [1, 6]: 99.56 ± 5.11% | Processed sample stability (% ± SD) [1, 7]: 103.30 ± 8.41% | Bench top Stability (% ± SD) [1, 8]: 94.72 ± 6.57% | Bench top Stability (% ± SD) [1, 9]: 103.30 ± 8.41% | Autosampler stability (% ± SD) [1, 8]: 108.40 ± 1.59% | Autosampler stability (% ± SD) [1, 9]: 103.09 ± 4.95% | Freeze-thaw stability (% ± SD) [1, 8]: 102.10 ± 5.76% | Freeze-thaw stability (% ± SD) [1, 9]: 103.41 ± 5.62% | Long-term stability (% ± SD) ([1]; rat plasma, −80 °C for 60 days, high QC (nominal 200.50-201.50 ng/mL), the values are: measured concentration): 204 ± 8.81 ng/mL | Papp at 1 h, 2 mg/mL [3]: 0.113 ×10⁻⁶ cm/s | AUC(0-inf) (in vivo; plasma, po, 500 mg/kg): 188 ± 20.5 ng·h/mL | AUC(0-t) (in vivo; plasma, po, 500 mg/kg): 161 ± 18.9 ng·h/mL | Cmax (in vivo; plasma, po, 500 mg/kg): 124 ± 64.9 ng/mL | MRT inf (in vivo; plasma, po, 500 mg/kg): 3.85 ± 0.857 h | Tmax (in vivo; plasma, po, 500 mg/kg): 0.25 h | half-life (in vivo; plasma, po, 500 mg/kg): 3.15 ± 0.612 h | k el (in vivo; plasma, po, 500 mg/kg): 6.28e-05 s⁻¹ | oral clearance (Cl/F) (in vivo; WSE 500 mg/kg oral single dose): 0.026 ± 0.003 (mg/kg)/(ng/mL)/h
SMILES: CC1=C(CO)C(=O)O[C@@H]([C@@H](C)[C@H]2CC[C@H]3[C@@H]4C[C@H]5O[C@]56[C@@H](O)C=CC(=O)[C@]6(C)[C@H]4CC[C@]23C)C1 [Withaferin A]
AUC(0–t) [2]: 1.09 µM·h | Clearance from plasma [2]: 0.151 L/h | Cmax [2]: 1800 nM | Tmax [2]: 4.98 min | plasma half-life [2]: 1.36 h | bioavailability ([4]; withaferin A 10 mg/kg oral dose, 5 mg/kg I.V. dose): 32.4 ± 4.8% | Cmax ([4]; withaferin A 10 mg/kg oral): 619 ± 125 ng/mL | Tmax ([4]; withaferin A 10 mg/kg oral): 6.6 ± 4.2 min | half-life ([4]; withaferin A 10 mg/kg oral): 7.6 ± 3.3 h | Tmax [5]: 0.3333 h | plasma half-life (t1/2) [5]: 0.9987 ± 0.265 h

SMILES: CC1=C(CO)C(=O)OC(C(C)C2CCC3C4C5OC5C5(O)CC=CC(=O)C5(C)C4CCC23C)C1 (centres unmarked) [12-Deoxy-withastramonolide]
Processed sample stability (% ± SD) [1, 6]: 92.99 ± 8.83% | Processed sample stability (% ± SD) [1, 7]: 121.14 ± 59.07% | Bench top Stability (% ± SD) [1, 8]: 95.97 ± 7.13% | Bench top Stability (% ± SD) [1, 9]: 97.92 ± 7.04% | Autosampler stability (% ± SD) [1, 8]: 108.67 ± 1.94% | Autosampler stability (% ± SD) [1, 9]: 101.72 ± 3.25% | Freeze-thaw stability (% ± SD) [1, 8]: 97.78 ± 4.28% | Freeze-thaw stability (% ± SD) [1, 9]: 101.34 ± 8.37% | Papp at 1 h, 2 mg/mL (in vitro): 0.122 ×10⁻⁶ cm/s | AUC(0-inf) (in vivo; in vivo, po, 500 mg/kg): 92.3 ± 13.5 ng·h/mL | AUC(0-t) (in vivo; in vivo, po, 500 mg/kg): 82.9 ± 7.82 ng·h/mL | Cmax (in vivo; in vivo, po, 500 mg/kg): 57.5 ± 7.52 ng/mL | MRT inf (in vivo; in vivo, po, 500 mg/kg): 2.34 ± 0.666 h | Tmax (in vivo; in vivo, po, 500 mg/kg): 0.291 ± 0.102 h | half-life (in vivo; in vivo, po, 500 mg/kg): 1.73 ± 0.505 h | k el (in vivo; in vivo, po, 500 mg/kg): 0.000121 s⁻¹ | oral clearance (Cl/F) (in vivo; in vivo, po, 500 mg/kg): 0.016 ± 0.002 (mg/kg)/(ng/mL)/h
